These results are taken from paper PMC11062922 (Nature Chemical Biology, 2023).

Each structure is given as a SMILES string.

One test has as its target T1, ACAD11 (Homo sapiens, UniProt Q709F0).
T1 construct: endogenous in cells
T1 sequence (Q709F0 1-780): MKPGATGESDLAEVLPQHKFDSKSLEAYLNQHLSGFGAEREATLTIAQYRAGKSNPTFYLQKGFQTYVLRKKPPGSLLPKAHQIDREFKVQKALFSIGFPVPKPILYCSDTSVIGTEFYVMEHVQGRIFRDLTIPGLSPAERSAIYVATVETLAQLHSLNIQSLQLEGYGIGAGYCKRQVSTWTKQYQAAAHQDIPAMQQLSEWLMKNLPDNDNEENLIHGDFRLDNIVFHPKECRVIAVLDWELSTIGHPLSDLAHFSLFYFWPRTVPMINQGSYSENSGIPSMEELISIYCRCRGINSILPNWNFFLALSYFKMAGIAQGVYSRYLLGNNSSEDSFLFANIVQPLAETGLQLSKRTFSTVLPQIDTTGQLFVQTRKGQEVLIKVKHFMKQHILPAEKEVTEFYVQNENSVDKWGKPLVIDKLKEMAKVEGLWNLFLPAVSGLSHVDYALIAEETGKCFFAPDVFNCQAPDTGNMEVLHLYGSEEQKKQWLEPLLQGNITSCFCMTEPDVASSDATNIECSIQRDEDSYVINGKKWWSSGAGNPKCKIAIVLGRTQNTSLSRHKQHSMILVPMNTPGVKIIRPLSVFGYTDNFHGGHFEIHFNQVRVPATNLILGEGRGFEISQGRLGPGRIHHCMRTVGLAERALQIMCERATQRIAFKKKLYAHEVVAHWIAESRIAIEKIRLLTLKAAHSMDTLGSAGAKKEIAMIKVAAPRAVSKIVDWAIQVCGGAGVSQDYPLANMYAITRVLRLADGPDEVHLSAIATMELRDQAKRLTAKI
Description: Kinobeads two-dose competition binding: ACAD11. To be noted: sheet CATDS matrix 2; Gene Name ACAD11.

The next test addresses T2, ACOX1 (Homo sapiens, UniProt Q15067).
T2 construct: endogenous in cells
T2 sequence (Q15067 1-660): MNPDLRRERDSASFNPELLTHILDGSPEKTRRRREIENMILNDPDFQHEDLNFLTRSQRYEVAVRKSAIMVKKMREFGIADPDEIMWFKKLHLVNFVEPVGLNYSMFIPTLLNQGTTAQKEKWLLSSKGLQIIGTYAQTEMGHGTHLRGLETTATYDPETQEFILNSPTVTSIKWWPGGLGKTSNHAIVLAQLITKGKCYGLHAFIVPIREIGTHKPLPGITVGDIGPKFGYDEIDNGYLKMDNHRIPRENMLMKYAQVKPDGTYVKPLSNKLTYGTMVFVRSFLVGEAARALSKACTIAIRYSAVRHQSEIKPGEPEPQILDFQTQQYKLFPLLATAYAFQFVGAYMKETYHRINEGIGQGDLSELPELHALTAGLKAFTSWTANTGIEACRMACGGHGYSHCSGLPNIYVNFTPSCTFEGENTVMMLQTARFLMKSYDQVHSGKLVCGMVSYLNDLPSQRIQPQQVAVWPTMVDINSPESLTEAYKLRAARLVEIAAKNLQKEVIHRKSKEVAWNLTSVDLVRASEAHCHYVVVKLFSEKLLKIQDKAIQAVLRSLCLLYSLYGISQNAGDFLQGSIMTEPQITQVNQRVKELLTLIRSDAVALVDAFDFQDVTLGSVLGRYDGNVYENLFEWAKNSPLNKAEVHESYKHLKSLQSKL
The test is described as follows: Kinobeads two-dose competition binding: ACOX1.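 On all read-outs here: competition of compounds with immobilized broad-spectrum kinase inhibitor beads in cell lysate at 100 and 1,000 nM, 45 min at 4 °C, bead-bound protein quantified by label-free MS versus DMSO.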 Conditions: for potency estimated from few doses: sheet "Kinobeads Drugmatrix -nanomolar" (only nanomolar interactions), read-out: Kinobeads Drugmatrix -nanomolar: apparent Kd, ACOX1; for CATDS: sheet CATDS matrix 2, Gene Name ACOX1.

Another test deals with ABL1 (Homo sapiens, UniProt P00519). The test is described as follows: Kinobeads two-dose competition binding: ABL1. To be noted: sheet CATDS matrix 2; Gene Name ABL1.
Sequence of ABL1 (P00519 28-1130 limits assumed): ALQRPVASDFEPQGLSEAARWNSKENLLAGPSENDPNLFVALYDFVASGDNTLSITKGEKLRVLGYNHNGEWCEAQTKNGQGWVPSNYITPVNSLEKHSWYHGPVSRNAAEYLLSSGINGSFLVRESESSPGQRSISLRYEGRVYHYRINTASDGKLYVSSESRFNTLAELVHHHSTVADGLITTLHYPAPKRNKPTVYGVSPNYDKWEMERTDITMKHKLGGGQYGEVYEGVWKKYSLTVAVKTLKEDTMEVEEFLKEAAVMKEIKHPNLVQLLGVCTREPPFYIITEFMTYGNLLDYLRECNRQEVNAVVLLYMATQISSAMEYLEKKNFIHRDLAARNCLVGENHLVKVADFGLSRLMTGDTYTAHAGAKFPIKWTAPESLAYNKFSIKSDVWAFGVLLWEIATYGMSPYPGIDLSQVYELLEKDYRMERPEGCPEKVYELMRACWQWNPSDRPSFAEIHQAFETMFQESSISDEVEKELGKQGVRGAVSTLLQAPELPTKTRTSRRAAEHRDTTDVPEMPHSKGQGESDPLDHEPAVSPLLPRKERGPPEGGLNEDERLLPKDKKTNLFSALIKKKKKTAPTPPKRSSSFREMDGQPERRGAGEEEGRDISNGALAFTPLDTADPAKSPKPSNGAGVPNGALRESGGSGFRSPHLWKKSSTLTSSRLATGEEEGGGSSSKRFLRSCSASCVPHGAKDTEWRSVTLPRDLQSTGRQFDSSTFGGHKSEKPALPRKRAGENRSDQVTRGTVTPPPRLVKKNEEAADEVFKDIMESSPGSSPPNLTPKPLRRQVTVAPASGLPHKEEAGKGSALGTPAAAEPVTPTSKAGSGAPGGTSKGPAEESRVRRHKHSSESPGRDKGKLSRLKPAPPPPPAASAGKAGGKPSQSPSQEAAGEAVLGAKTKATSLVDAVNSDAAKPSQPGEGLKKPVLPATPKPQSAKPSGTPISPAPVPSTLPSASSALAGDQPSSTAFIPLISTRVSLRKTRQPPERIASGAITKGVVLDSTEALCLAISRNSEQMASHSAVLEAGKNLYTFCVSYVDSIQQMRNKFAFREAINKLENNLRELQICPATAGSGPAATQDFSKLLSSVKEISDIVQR
A further test deals with T3, ABL2 (Homo sapiens, UniProt P42684).
T3 construct: endogenous in cells
T3 sequence (P42684 whole entry): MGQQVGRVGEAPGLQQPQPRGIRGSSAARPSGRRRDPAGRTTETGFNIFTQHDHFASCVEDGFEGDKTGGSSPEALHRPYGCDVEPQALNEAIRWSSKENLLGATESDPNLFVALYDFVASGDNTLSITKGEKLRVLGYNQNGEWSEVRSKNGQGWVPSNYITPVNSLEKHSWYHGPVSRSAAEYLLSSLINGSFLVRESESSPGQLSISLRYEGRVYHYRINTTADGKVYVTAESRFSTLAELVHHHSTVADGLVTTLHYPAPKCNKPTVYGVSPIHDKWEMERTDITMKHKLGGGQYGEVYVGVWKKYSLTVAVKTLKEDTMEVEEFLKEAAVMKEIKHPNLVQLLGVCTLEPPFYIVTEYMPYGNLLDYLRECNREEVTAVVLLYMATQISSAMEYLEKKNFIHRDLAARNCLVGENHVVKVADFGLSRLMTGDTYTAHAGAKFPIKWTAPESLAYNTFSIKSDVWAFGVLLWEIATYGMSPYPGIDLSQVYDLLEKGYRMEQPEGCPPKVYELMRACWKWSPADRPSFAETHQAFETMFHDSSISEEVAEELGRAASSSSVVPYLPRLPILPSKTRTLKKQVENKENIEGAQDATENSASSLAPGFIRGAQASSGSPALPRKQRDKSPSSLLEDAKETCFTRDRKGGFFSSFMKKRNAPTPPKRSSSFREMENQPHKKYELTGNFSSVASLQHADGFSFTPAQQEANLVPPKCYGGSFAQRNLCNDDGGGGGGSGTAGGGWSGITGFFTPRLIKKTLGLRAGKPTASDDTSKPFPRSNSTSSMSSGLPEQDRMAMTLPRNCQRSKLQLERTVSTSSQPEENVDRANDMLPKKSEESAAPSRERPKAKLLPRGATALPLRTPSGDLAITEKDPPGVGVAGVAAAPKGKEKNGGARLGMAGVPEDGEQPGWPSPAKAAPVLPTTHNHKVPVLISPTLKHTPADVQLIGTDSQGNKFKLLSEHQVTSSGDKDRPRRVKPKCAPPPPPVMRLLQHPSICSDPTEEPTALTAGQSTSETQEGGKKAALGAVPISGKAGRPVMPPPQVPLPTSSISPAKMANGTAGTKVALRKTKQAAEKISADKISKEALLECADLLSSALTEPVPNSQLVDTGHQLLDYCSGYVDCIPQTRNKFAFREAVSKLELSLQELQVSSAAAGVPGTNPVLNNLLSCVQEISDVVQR
Description: Kinobeads two-dose competition binding: ABL2. To be noted: sheet CATDS matrix 2; Gene Name ABL2.

The target in another test is T4, AAK1 (Homo sapiens, UniProt Q2M2I8).
T4 construct: to maximize the representation of endogenous proteins; endogenous in cells
T4 sequence (Q2M2I8 whole entry): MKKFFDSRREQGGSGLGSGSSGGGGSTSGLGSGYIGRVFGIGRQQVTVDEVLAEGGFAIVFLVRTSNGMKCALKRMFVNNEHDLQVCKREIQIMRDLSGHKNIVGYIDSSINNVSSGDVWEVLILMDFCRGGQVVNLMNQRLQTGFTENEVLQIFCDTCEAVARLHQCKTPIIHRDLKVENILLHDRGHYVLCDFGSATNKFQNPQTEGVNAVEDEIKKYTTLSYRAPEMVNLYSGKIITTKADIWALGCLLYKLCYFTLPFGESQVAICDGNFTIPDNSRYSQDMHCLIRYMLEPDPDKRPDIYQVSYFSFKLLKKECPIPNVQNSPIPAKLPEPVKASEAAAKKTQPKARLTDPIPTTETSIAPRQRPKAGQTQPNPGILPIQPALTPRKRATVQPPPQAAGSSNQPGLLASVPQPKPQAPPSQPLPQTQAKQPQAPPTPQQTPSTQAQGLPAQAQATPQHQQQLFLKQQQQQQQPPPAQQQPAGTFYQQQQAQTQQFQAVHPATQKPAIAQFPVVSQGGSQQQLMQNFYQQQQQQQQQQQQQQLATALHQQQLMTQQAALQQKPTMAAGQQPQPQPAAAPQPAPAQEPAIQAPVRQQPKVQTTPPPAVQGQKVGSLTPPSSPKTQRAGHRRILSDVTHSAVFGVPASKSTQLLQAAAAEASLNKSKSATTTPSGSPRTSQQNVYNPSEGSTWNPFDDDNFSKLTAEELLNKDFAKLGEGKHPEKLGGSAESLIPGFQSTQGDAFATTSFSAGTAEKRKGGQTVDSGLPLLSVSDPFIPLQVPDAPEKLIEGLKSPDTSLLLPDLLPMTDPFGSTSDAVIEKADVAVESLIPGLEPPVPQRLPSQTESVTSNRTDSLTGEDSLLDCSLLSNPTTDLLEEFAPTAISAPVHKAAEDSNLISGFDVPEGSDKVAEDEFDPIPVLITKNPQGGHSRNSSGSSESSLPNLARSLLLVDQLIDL
The test is described as follows: Kinobeads two-dose competition binding: AAK1.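 On all read-outs here: kinobeads competition pulldown from cell lysate, compound preincubated 45 min at 4 °C, bead-bound protein measured by label-free mass spectrometry against DMSO vehicle control.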 To be noted: for CATDS: sheet CATDS matrix 2, Gene Name AAK1; for potency estimated from few doses: sheet "Kinobeads Drugmatrix - all", unit inferred, same values below 1000 recur in sheet "nanomolar", read-out: Kinobeads Drugmatrix - all: apparent Kd, AAK1.

With `Oc1ccc2ncnc(Nc3ccc(OCc4ccccc4)cc3)c2c1` [GI262866A], the CATDS at ACAD11 came out at 0; at ACOX1 it was 0.07628; on ABL1, 0; on ABL2, 0; at AAK1, 0. Moreover, the potency estimated from few doses at ACOX1 is 830 nM.

Regarding `COc1cc2nccc(Oc3ccc(NC(=O)C4(C(=O)Nc5ccc(F)cc5)CC4)cc3)c2cc1OC` [Cabozantinib, reference compound], the CATDS at ACAD11, on ACOX1, at ABL1, at ABL2 and at AAK1 was 0 in each case.

`O=c1cc(N2CCOCC2)nc2n(Cc3cccc(C(F)(F)F)c3)ccn12` [GSK2297543A]: the CATDS on ACAD11, on ACOX1, at ABL1, on ABL2 and at AAK1 was 0 each time.

For the compound `COc1cc2nc(-c3cc(F)ccc3O)nc(N[C@@H]3CNC[C@H]3C(C)(C)O)c2cc1OC` [CCT241533], the CATDS on ACAD11, on ACOX1, at ABL1, at ABL2 and on AAK1 was 0 each time.

`Cc1ccc(NC(=O)c2ccc(Cl)cc2)cc1-c1ccc(C(=O)Nc2ccncc2)cc1` [GSK1398467A]: the CATDS on ACAD11 is 0; on ACOX1 it was 0.2266; at ABL1 it was 0; at ABL2 it was 0; on AAK1, 0. Also, on ACOX1, the potency estimated from few doses is 761 nM.

In the case of `Cc1c(Cn2c3ccccc3n3c(=O)cc(N4CCOCC4)nc23)cccc1C(F)(F)F` [GSK2306394A], the CATDS at ACAD11, on ACOX1, on ABL1, on ABL2 and on AAK1 was 0 each time.

As to `CC(C)(C)OC(=O)NC1CCCN(c2cc(-c3ccc4c(N)n[nH]c4c3)nc(N)n2)C1` (centres unmarked) [GSK2286096A], the CATDS at ACAD11, at ACOX1, on ABL1, on ABL2 and on AAK1 was 0 throughout.

As for `COc1cc(Nc2nccc(N3CCC(NC(=O)c4cccc(C#N)c4)C3)n2)cc(OC)c1OC` (centres unmarked) [GSK1379751A], the CATDS is on record as 0 at ACAD11; 0 on ACOX1; 0 on ABL1; 0 on ABL2; 0.2095 on AAK1. The potency estimated from few doses on AAK1 was 786 nM.

In the case of `O=c1cc(N2CCOCC2)nc2n(Cc3cccc(Cl)c3Cl)c3ccccc3n12` [GSK2299009A], the CATDS on ACAD11, at ACOX1, on ABL1, on ABL2 and on AAK1 was 0 each time.

Consider `c1ccc(Cc2nc3ccc(Nc4ncnc5ccccc45)cc3[nH]2)cc1` [GR269666A_KCGS], for which the CATDS on ACAD11, on ACOX1, on ABL1, on ABL2 and on AAK1 was 0 throughout.

As to `COc1ccc(Nc2nccc(N3CCC(NC(=O)c4cc5ccccc5s4)C3)n2)cc1` (centres unmarked) [GSK1379738A], the CATDS on ACAD11, on ACOX1, at ABL1, at ABL2 and at AAK1 was 0 each time.

Consider `O=C1Nc2ccccc2/C1=C1\CCc2cc(O)ccc21` [GR105659X], for which the CATDS on ACAD11, on ACOX1, on ABL1, at ABL2 and at AAK1 was 0 each time.

For `NC(CNC(=O)c1cc(Br)c(-c2ccnc3[nH]ccc23)s1)c1ccccc1` (centres unmarked) [GSK1322949A], the CATDS on ACAD11, on ACOX1, at ABL1, at ABL2 and on AAK1 was 0 throughout. Also, at AAK1, the potency estimated from few doses is greater than 1000 nM.

With `O=c1[nH]cc(-c2ccc(O)cc2)c2sc(-c3ccncc3)cc12` [GSK1033723A], the CATDS on ACAD11, at ACOX1, at ABL1, on ABL2 and at AAK1 was 0 each time.

As to `N#Cc1ccc(CCNc2nccc(-c3cccc(CN4CCNCC4)c3)n2)cc1` [GSK2137462A], the CATDS at ACAD11, on ACOX1, on ABL1, on ABL2 and on AAK1 was 0 in each case.

Take `CCCN1CCCC(c2ccc(Nc3nc(Nc4cc(F)ccc4C(N)=O)c4cc[nH]c4n3)c(OC)c2)C1` (centres unmarked) [GSK1173862A]: the CATDS at ACAD11, on ACOX1, at ABL1, on ABL2 and at AAK1 was 0 throughout.

On to `COc1cc2ncn(-c3cc(OCCc4ccccc4)c(C(N)=O)s3)c2cc1OC` [GSK204925A], for which the CATDS at ACAD11, at ACOX1, at ABL1, on ABL2 and on AAK1 was 0 each time.

Consider `CN(C)C(=O)/C(C#N)=C/c1ccc(-c2nc3cnc4[nH]ccc4c3n2C2CCCCC2)o1` [FM-381], for which the CATDS on ACAD11, at ACOX1, on ABL1, on ABL2 and on AAK1 was 0 throughout. Besides, the potency estimated from few doses on AAK1 is greater than 1000 nM.

Take `COc1ccc2nc(-c3cccc(C)n3)nc(Nc3ccncc3)c2c1` [GSK204919_KCGS]: the CATDS at ACAD11, at ACOX1, at ABL1, at ABL2 and at AAK1 was 0 each time.

`COc1cc2c(cc1Nc1nc(Nc3ccsc3C(N)=O)c3cc[nH]c3n1)N(C(=O)CN(C)C)CCC2` [GSK2110236A]: the CATDS on ACAD11, on ACOX1, on ABL1, at ABL2 and on AAK1 was 0 in each case.

As to `COc1cc2ncnc(Nc3cccc(Cl)c3F)c2cc1O[C@H]1CC[C@@]2(CC1)NCCNC2=O` [BI00113608], the CATDS at ACAD11, at ACOX1, on ABL1, on ABL2 and at AAK1 was 0 in each case.

Take `O=c1[nH]cc(-c2ccc(N3CCOCC3)cc2)c2sc(-c3cn[nH]c3)cc12` [GSK2276055A]: the CATDS on ACAD11, on ACOX1, on ABL1, on ABL2 and at AAK1 was 0 in each case.

On to `CNc1nc(-c2ccc3c(N)n[nH]c3c2)cc(N2C[C@@H](C(=O)Nc3ccccc3)CC[C@H]2C)n1` [GSK2298859A], for which the CATDS at ACAD11, on ACOX1, at ABL1, on ABL2 and on AAK1 was 0 throughout.

On to `NCC1CCC(CNc2nc(NCc3ccccc3OC(F)(F)F)ncc2[N+](=O)[O-])CC1` (centres unmarked) [BIRZ0518XX], for which the CATDS at ACAD11, on ACOX1, at ABL1, on ABL2 and at AAK1 was 0 in each case.
